From BindingDB's records for patent US10053455 (Ab Science, 2018)

Molecular target: Tyrosine-protein kinase SYK (Homo sapiens, UniProt P43405)
Test: In Vitro SYK Inhibition Assay
Details: pH 7.8; 25 °C
Protocol: SYK kinase was purified as a full length protein in a baculovirus system near homogeneity. All kinase assays were performed with the Kinase TK (tyrosine kinase) HTRF (Homogeneous Time Resolved Fluorescence) assay developed by Cisbio international. […] Reactions were initiated upon introduction of the enzyme and terminated with the addition of one reaction volume (25 μl) of HTRF detection buffer. Plates were incubated for one hour at room temperature and the time resolved Fluorescence resonance energy transfer signal was measured in a Pherastar FS microplate reader (BMG Labtech). All data were the average of triplicate results with a standard deviation <10%.

Compound: O=C1NCCN(c2ncc(-c3cccc(Nc4nccc(-c5cccnc5)n4)c3)o2)C12CC2 [US10053455, 019]
- IC50: < 500 nM
